# Measured values published in US12421210B2, “Fused bicyclic heterocycles as therapeutic agents” (NEW YORK UNIVERSITY, priority 2018, dated 2025).
# Biological target: human NAMPT enzyme (His-hNAMPT) (Homo sapiens (Human), UniProt P43490)
# Experiment: NAMPT enzymatic inhibition assay (fluorescence, NADH product)
# Format: biochemical
# Details: [BPS]; read-out: NAMPT IC50 (μM) [BPS]
# human NAMPT enzyme (His-hNAMPT), sequence (P43490 whole entry): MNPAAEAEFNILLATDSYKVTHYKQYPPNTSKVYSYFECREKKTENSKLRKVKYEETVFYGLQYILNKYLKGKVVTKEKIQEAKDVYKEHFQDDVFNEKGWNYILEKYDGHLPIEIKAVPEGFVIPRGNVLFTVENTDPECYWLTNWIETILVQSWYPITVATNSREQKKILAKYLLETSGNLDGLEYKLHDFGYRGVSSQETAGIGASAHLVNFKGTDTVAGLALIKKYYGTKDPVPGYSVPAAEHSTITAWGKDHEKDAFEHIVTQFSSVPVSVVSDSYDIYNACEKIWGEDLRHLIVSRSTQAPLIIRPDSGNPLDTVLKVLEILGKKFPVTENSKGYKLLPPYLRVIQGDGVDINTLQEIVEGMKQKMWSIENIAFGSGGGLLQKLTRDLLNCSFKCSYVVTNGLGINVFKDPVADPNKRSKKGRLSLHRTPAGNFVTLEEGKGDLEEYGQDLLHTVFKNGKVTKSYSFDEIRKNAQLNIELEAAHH
row,Structure (SMILES),IC50
1,"Nc1ccc(/C=C/C(=O)NCC[C@@H]2[C@H]3CN(C(=O)OC4CCCC4)C[C@@H]23)cn1 [Example 34, (1R,5S,6s)-cyclopentyl 6-(2-((E)-3-(6-aminopyridin-3-yl)acrylamido)ethyl)-3-azabicyclo[3.1.0]hexane-3-carboxylate]",0.01 to 0.49 µM
2,"Nc1ccc(/C=C/C(=O)NCC[C@@H]2[C@H]3CN(C(=O)c4ccc(C(=O)O)cc4)C[C@@H]23)cn1 [Example 179, 4-((1R,5S,6s)-6-(2-((E)-3-(6-aminopyridin-3-yl)acrylamido)ethyl)-3-azabicyclo[3.1.0]hexane-3-carbonyl)benzoic acid]",1 to 29 µM
3,"CC1(OC(=O)N2C[C@@H]3[C@@H](CCNC(=O)c4cc5ccncc5o4)[C@@H]3C2)COC1 [Example 27, (1R,5S,6s)-3-methyloxetan-3-yl 6-(2-(furo[2,3-c]pyridine-2-carboxamido)ethyl)-3-azabicyclo[3.1.0]hexane-3-carboxylate]",0.01 to 0.49 µM
4,"O=C(NCC[C@@H]1[C@H]2CN(C(=O)C3CCOCC3)C[C@@H]12)c1cc2ccncc2o1 [Example 100, N-(2-((1R,5S,6s)-3-(tetrahydro-2H-pyran-4-carbonyl)-3-azabicyclo[3.1.0]hexan-6-yl)ethyl)furo[2,3-c]pyridine-2-carboxamide]",0.5 to 0.99 µM
5,"O=C(NCC[C@@H]1[C@H]2CN(C(=O)CC3CCOCC3)C[C@@H]12)c1cc2ccncc2o1 [Example 99, N-(2-((1R,5S,6s)-3-(2-(tetrahydro-2H-pyran-4-yl)acetyl)-3-azabicyclo[3.1.0]hexan-6-yl)ethyl)furo[2,3-c]pyridine-2-carboxamide]",0.01 to 0.49 µM
6,"CC(C)(C)NC(=O)N1C[C@@H]2[C@@H](CCNC(=O)c3cnc4nccn4c3)[C@@H]2C1 [Example 77, N-(2-((1R,5S,6s)-3-(tert-butylcarbamoyl)-3-azabicyclo[3.1.0]hexan-6-yl)ethyl)imidazo[1,2-a]pyrimidine-6-carboxamide]",0.01 to 0.49 µM
7,"O=C(NCC[C@@H]1[C@H]2CN(C(=O)CC3CCOCC3)C[C@@H]12)c1cc2cnccc2[nH]1 [Example 112, N-(2-((1R,5S,6s)-3-(2-(tetrahydro-2H-pyran-4-yl)acetyl)-3-azabicyclo[3.1.0]hexan-6-yl)ethyl)-1H-pyrrolo[3,2-c]pyridine-2-carboxamide]",0.01 to 0.49 µM

# More lines, now with the values ahead:
row,IC50,Structure (SMILES)
1,0.01 to 0.49 µM,"Nc1ccc(/C=C/C(=O)NCC[C@@H]2[C@H]3CN(c4cccc5ccccc45)C[C@@H]23)cn1 [Example 191, (E)-3-(6-aminopyridin-3-yl)-N-(2-((1R,5S,6s)-3-(naphthalen-1-yl)-3-azabicyclo[3.1.0]hexan-6-yl)ethyl)acrylamide]"
2,0.01 to 0.49 µM,"Nc1ccc(/C=C/C(=O)NCC[C@@H]2[C@H]3CN(C(=O)c4ccccc4)C[C@@H]23)cn1 [Example 25, (E)-3-(6-aminopyridin-3-yl)-N-(2-((1R,5S,6s)-3-benzoyl-3-azabicyclo[3.1.0]hexan-6-yl)ethyl)acrylamide]"
3,0.01 to 0.49 µM,"O=C(/C=C/c1cccnc1)NCC[C@@H]1[C@H]2CN(c3cccc4ccccc34)C[C@@H]12 [Example 126, (E)-N-(2-((1R,5S,6s)-3-(naphthalen-1-yl)-3-azabicyclo[3.1.0]hexan-6-yl)ethyl)-3-(pyridin-3-yl)acrylamide]"
4,0.01 to 0.49 µM,"Nc1ccc(/C=C/C(=O)NCC[C@@H]2[C@H]3CN(C(=O)NCc4ccccc4)C[C@@H]23)cn1 [Example 28, (1R,5S,6s)-6-(2-((E)-3-(6-aminopyridin-3-yl)acrylamido)ethyl)-N-benzyl-3-azabicyclo[3.1.0]hexane-3-carboxamide]"
5,0.01 to 0.49 µM,"O=C(/C=C/c1cccnc1)NCC[C@@H]1[C@H]2CN(c3ncc4ccccc4n3)C[C@@H]12 [Example 125, (E)-3-(pyridin-3-yl)-N-(2-((1R,5S,6s)-3-(quinazolin-2-yl)-3-azabicyclo[3.1.0]hexan-6-yl)ethyl)acrylamide]"
6,0.01 to 0.49 µM,"Nc1ccc(/C=C/C(=O)NCC[C@@H]2[C@H]3CN(C(=O)Nc4ccccc4)C[C@@H]23)cn1 [Example 31, (1R,5S,6s)-6-(2-((E)-3-(6-aminopyridin-3-yl)acrylamido)ethyl)-N-phenyl-3-azabicyclo[3.1.0]hexane-3-carboxamide]"
7,0.01 to 0.49 µM,"O=C(NCC[C@@H]1[C@H]2CN(c3cccc4ccccc34)C[C@@H]12)c1cc2ccncc2o1 [Example 121, N-(2-((1R,5S,6s)-3-(naphthalen-1-yl)-3-azabicyclo[3.1.0]hexan-6-yl)ethyl)furo[2,3-c]pyridine-2-carboxamide]"
8,0.01 to 0.49 µM,"O=C(/C=C/c1cccnc1)NCC[C@H]1[C@@H]2CN(c3ccccc3)C(=O)[C@H]12 (racemic) [Example 256 racemic, (E)-N-(2-((1R,5S,6S)-2-oxo-3-phenyl-3-azabicyclo[3.1.0]hexan-6-yl)ethyl)-3-(pyridin-3-yl)acrylamide and (E)-N-(2-((1S,5R,6R)-2-oxo-3-phenyl-3-azabicyclo[3.1.0]hexan-6-yl)ethyl)-3-(pyridin-3-yl)acrylamide]"

# Same assay, conditions: [HDB]; read-out: NAMPT IC50 (μM) [HDB]
row,Structure (SMILES),IC50
1,"Nc1ccc(/C=C/C(=O)NCC[C@@H]2[C@H]3CN(C(=O)c4ccc(C(=O)O)cc4)C[C@@H]23)cn1 [Example 179, 4-((1R,5S,6s)-6-(2-((E)-3-(6-aminopyridin-3-yl)acrylamido)ethyl)-3-azabicyclo[3.1.0]hexane-3-carbonyl)benzoic acid]",0.5 to 0.99 µM
2,"CC(c1ccc(F)cc1)N1C[C@@H]2[C@@H](CCNC(=O)/C=C/c3ccc(N)nc3)[C@@H]2C1 (stereo partly drawn) [Example 340, (E)-3-(6-aminopyridin-3-yl)-N-(2-((1R,5S,6s)-3-(1-(4-fluorophenyl)ethyl)-3-azabicyclo[3.1.0]hexan-6-yl)ethyl)acrylamide]",0.01 to 0.49 µM
3,"Nc1ncc(F)c(N2C[C@@H]3[C@@H](CCNC(=O)/C=C/c4cccnc4)[C@@H]3C2)n1 [Example 312, (E)-N-(2-((1R,5S,6s)-3-(2-amino-5-fluoropyrimidin-4-yl)-3-azabicyclo[3.1.0]hexan-6-yl)ethyl)-3-(pyridin-3-yl)acrylamide]",< 0.01 µM
4,"Cc1nc2nccc(N3C[C@@H]4[C@@H](CCNC(=O)/C=C/c5cccnc5)[C@@H]4C3)c2o1 [Example 342, (E)-N-(2-((1R,5S,6s)-3-(2-methyloxazolo[4,5-b]pyridin-7-yl)-3-azabicyclo[3.1.0]hexan-6-yl)ethyl)-3-(pyridin-3-yl)acrylamide]",0.01 to 0.49 µM
5,"O=C(CCc1cccnc1)NCC[C@@H]1[C@H]2CN(c3nc(Cl)ncc3F)C[C@@H]12 [Example 207, N-(2-((1R,5S,6s)-3-(2-chloro-5-fluoropyrimidin-4-yl)-3-azabicyclo[3.1.0]hexan-6-yl)ethyl)-3-(pyridin-3-yl)propanamide]",< 0.01 µM
6,"O=C(NCC[C@@H]1[C@H]2CN(c3nc(Cl)ncc3F)C[C@@H]12)c1ccc2nccn2c1 [Example 203, N-(2-((1R,5S,6s)-3-(2-chloro-5-fluoropyrimidin-4-yl)-3-azabicyclo[3.1.0]hexan-6-yl)ethyl)imidazo[1,2-a]pyridine-6-carboxamide]",0.01 to 0.49 µM
7,"COc1ncc(F)c(N2C[C@@H]3[C@@H](CCNC(=O)/C=C/c4ccc(F)nc4)[C@@H]3C2)n1 [Example 313, (E)-N-(2-((1R,5S,6s)-3-(5-fluoro-2-methoxypyrimidin-4-yl)-3-azabicyclo[3.1.0]hexan-6-yl)ethyl)-3-(6-fluoropyridin-3-yl)acrylamide]",< 0.01 µM

# Second part, the compound after the results:
row,IC50,Structure (SMILES)
1,0.01 to 0.49 µM,"CC(C)(C)c1cccc(N2C[C@@H]3[C@@H](CCNC(=O)/C=C/c4cccnc4)[C@@H]3C2)c1 [Example 155, (E)-N-(2-((1R,5S,6s)-3-(3-(tert-butyl)phenyl)-3-azabicyclo[3.1.0]hexan-6-yl)ethyl)-3-(pyridin-3-yl)acrylamide]"
2,0.01 to 0.49 µM,"Nc1ccc(/C=C/C(=O)NCC[C@@H]2[C@H]3CN(C(=O)c4ccccc4)C[C@@H]23)cn1 [Example 25, (E)-3-(6-aminopyridin-3-yl)-N-(2-((1R,5S,6s)-3-benzoyl-3-azabicyclo[3.1.0]hexan-6-yl)ethyl)acrylamide]"
3,< 0.01 µM,"O=C(NCC[C@@H]1[C@H]2CN(c3nc(Cl)ncc3F)C[C@@H]12)c1cc(-c2cccnc2)on1 [Example 208, N-(2-((1R,5S,6s)-3-(2-chloro-5-fluoropyrimidin-4-yl)-3-azabicyclo[3.1.0]hexan-6-yl)ethyl)-5-(pyridin-3-yl)isoxazole-3-carboxamide]"
4,0.01 to 0.49 µM,"CP(C)(=O)c1cccc(N2C[C@@H]3[C@@H](CCNC(=O)/C=C/c4cccnc4)[C@@H]3C2)c1 [Example 288, (E)-N-(2-((1R,5S,6s)-3-(3-(dimethylphosphoryl)phenyl)-3-azabicyclo[3.1.0]hexan-6-yl)ethyl)-3-(pyridin-3-yl)acrylamide]"
5,0.01 to 0.49 µM,"O=C(/C=C/c1cccnc1)NCC[C@@H]1[C@H]2CN(c3cccc(C(F)(F)F)c3)C(=O)[C@@H]12 (racemic) [Example 262, (E)-N-(2-((1R,5S,6S)-2-oxo-3-(3-(trifluoromethyl)phenyl)-3-azabicyclo[3.1.0]hexan-6-yl)ethyl)-3-(pyridin-3-yl)acrylamide and (E)-N-(2-((1S,5R,6R)-2-oxo-3-(3-(trifluoromethyl)phenyl)-3-azabicyclo[3.1.0]hexan-6-yl)ethyl)-3-(pyridin-3-yl)acrylamide]"
6,0.01 to 0.49 µM,"COc1cc(N2C[C@@H]3[C@@H](CCNC(=O)/C=C/c4cccnc4)[C@@H]3C2)ccn1 [Example 161, (E)-N-(2-((1R,5S,6S)-3-(2-methoxypyridin-4-yl)-3-azabicyclo[3.1.0]hexan-6-yl)ethyl)-3-(pyridin-3-yl)acrylamide]"
7,0.01 to 0.49 µM,"O=C(/C=C/c1cccnc1)NCC[C@@H]1[C@H]2CN(CCc3ccc(F)cc3)C[C@@H]12 [Example 250, (E)-N-(2-((1R,5S,6s)-3-(4-fluorophenethyl)-3-azabicyclo[3.1.0]hexan-6-yl)ethyl)-3-(pyridin-3-yl)acrylamide]"
8,0.01 to 0.49 µM,"O=C(/C=C/c1cccnc1)NCC[C@@H]1[C@H]2CN(c3ccc(Cl)cc3)C[C@@H]12 [Example 146, (E)-N-(2-((1R,5S,6s)-3-(4-chlorophenyl)-3-azabicyclo[3.1.0]hexan-6-yl)ethyl)-3-(pyridin-3-yl)acrylamide]"
9,0.01 to 0.49 µM,"O=C(NCC[C@H]1[C@@H]2CN(c3ccccc3)C(=O)[C@H]12)c1cc(-c2cccnc2)on1 (stereo in doubt) [Example 261, N-(2-((1R,5S,6S)-2-oxo-3-phenyl-3-azabicyclo[3.1.0]hexan-6-yl)ethyl)-5-(pyridin-3-yl)isoxazole-3-carboxamide/N-(2-((1S,5R,6R)-2-oxo-3-phenyl-3-azabicyclo[3.1.0]hexan-6-yl)ethyl)-5-(pyridin-3-yl)isoxazole-3-carboxamide]"
10,0.01 to 0.49 µM,"O=C(/C=C/c1cccnc1)NCC[C@@H]1[C@H]2CN(c3cccnc3)C[C@@H]12 [Example 149, (E)-3-(pyridin-3-yl)-N-(2-((1R,5S,6s)-3-(pyridin-3-yl)-3-azabicyclo[3.1.0]hexan-6-yl)ethyl)acrylamide]"
11,0.01 to 0.49 µM,"O=C(/C=C/c1cccnc1)NCC[C@H]1[C@@H]2CN(c3ccccc3)C(=O)[C@H]12 (racemic) [Example 256 racemic, (E)-N-(2-((1R,5S,6S)-2-oxo-3-phenyl-3-azabicyclo[3.1.0]hexan-6-yl)ethyl)-3-(pyridin-3-yl)acrylamide and (E)-N-(2-((1S,5R,6R)-2-oxo-3-phenyl-3-azabicyclo[3.1.0]hexan-6-yl)ethyl)-3-(pyridin-3-yl)acrylamide]"
